Test results: patent US20100093760A1, “METHODS FOR IDENTIFYING COMPOUNDS THAT MODULATE CELL SIGNALING AND METHODS EMPLOYING SUCH COMPOUNDS” (The General Hospital Corporation, priority 2006, published 2010)
Entries after “also recorded” stand apart in the source; their conditions may differ.

Legend:
zebrafish = assay: Zebrafish bone mineralization (calcein staining); assay type: in vivo; settings: at 10 dpf
Protocol: At 5 dpf and onward, larvae were fed for 1 hour every other day. […] At 10 dpf, larvae were immersed in calcein (0.2%) for 30 minutes, as previously described (Du et al., Dev. Biol. 238:239-246, 2001). […] Calcified skeletal structures were visualized by green fluorescence and the number of vertebral bodies counted.

zebrafish embryos = assay type: in vivo
Protocol: According to one example of the whole animal-based screening methods of the invention, 1-2 hour old zebrafish embryos are arrayed in the wells of 96-well plates, three embryos per well. A chemical library, which is comprised of tens of thousands of diverse small molecules, is then pin-transferred into the wells at a final concentration of ˜2 to 10 uM. Embryos are observed over the course of next 24-48 hours and scored under a dissecting microscope for phenotype consistent with loss of BMP signaling (dorsalized embryos, FIG. 1) or with the loss of nodal signaling (cyclopia, FIG. 2).
Small molecule screening in zebrafish was performed as previously described (Peterson et al., Nat. Biotechnol. 22:595-599, 2004) with several modifications. Pairs of wild-type zebrafish were mated, and newly-fertilized eggs were arrayed in triplicate in 96-well plates containing E3 buffer. At 4 hours post fertilization (hpf), compounds were added to wells at 5-10 μM. Embryos were incubated at 28.5° C., and gross morphology of embryos was examined at 12, 24, and 48 hpf for dorsalization or ventralization of embryonic axis, as previously described (Mullins et al., Development 123:81-93, 1996). In total, 7,570 compounds were screened, including synthetic screening compounds (Chembridge Corporation, 5,580 small molecules) and known bioactive compounds (Microsource Discovery Systems, 1,840 small molecules and Sigma-Aldrich, 150 small molecules). For follow up studies, Compound C/Dorsomorphin and Ara-A (adenine 9-β-D-arabinofurano-side) were purchased from Sigma (St. Louis, Mo.), and C75 was purchased from EMD Biosciences (San Diego, Calif.).

caALK7 = assay: Constitutively-active ALK7 PAI-1 promoter reporter (CAGA-Luc); assay type: cell-based; settings: PASMCs, up to 20 μM
Protocol: Murine PASMCs grown to 50% confluence in 6-well plates were transiently transfected with 0.3 μg Id1 promoter luciferase reporter construct (BRE-Luc, Dr. Peter ten Dijke, Leiden University Medical Center, Netherlands (Korchynskyi et al., J. Biol. Chem. 277:4883-4891, 2002)) in combination with 0.6 μg plasmids expressing constitutively-active forms of BMP type I receptors (caALK2, caALK3, or caALK6, kindly provided by Dr. Kohei Miyazono, University of Tokyo, Japan (Fujii et al., Mol. Biol. Cell 10:3801-3813, 1999)), using Fugene6 (Roche). To assess Activin and […] type I receptor function, PASMCs were transiently transfected with 0.3 μg PAI-1 promoter luciferase reporter construct (CAGA-Luc, Dr. Peter ten Dijke (Dennler et al., Embo J. 17:3091-3100, 1998)) in combination with 0.6 μg plasmids expressing constitutively active forms of type I receptors (caALK4, caALK5, and caALK7, also provided by Dr. Kohei Miyazono (Okadome et al., J. Biol. Chem. 271:21687-21690, 1996; Shimizu et al., Genes Cells 3:125-134, 1998)). For both reporters, 0.2 μg pRL-TK Renilla luciferase (Promega) was used to control for transfection efficiency. […] Cell extracts were harvested, and relative promoter activity quantitated by the ratio of firefly to Renilla luciferase activity using the dual luciferase assay kit (Promega). […] Hepcidin promoter activity was measured by luciferase assay as above.

[1] = test system: hepcidin (HAMP) and Id1 mRNA; assay: Hepcidin and Id1 mRNA qRT-PCR in Hep3B cells; assay type: cell-based, human
Protocol: Quantitative RT-PCR was performed for mRNA encoding Id1 or human hepcidin (HAMP) as previously described (Babitt et al., Nat. Genet. 38:531-539, 2006; Yu et al., J. Biol. Chem. 280:24443-24450, 2005), and normalized to 18S ribosomal RNA (rRNA) or β-actin mRNA levels.

[2] = 10 μM, continuous exposure from 8 hpf, scored at 48 hpf

For `c1cc(-c2cnn3cc(-c4ccc(OCCN5CCCCC5)cc4)cnc23)ccn1` [Compound C/Dorsomorphin], the “number of mineralized vertebrae” value (zebrafish; 4 μM from 24 hpf, P<0.001 vs DMSO) was “significant decrease”, the “effect on vertebral and craniofacial bone calcification (calcein staining)” value (zebrafish; 1-4 μM from 24 hpf) was “inhibition of bone mineralization; also recorded: disrupts vertebral bone mineralization; also recorded: disrupts craniofacial bone mineralization; also recorded: inhibits bone mineralization; also recorded: decrease in vertebral segment and craniofacial bone calcification; also recorded: reduced vertebral segment and craniofacial bone calcification” and the “viability and gross morphology” value (zebrafish; 1-4 μM from 24 hpf) was “morphologically and functionally normal; also recorded: without disrupting overall morphology; also recorded: viable fish at 10 dpf without evidence of dorsalization; also recorded: morphologically grossly normal and viable”. For the same compound, the Moderate % (zebrafish embryos; [2]) was 0%, the Normal % (zebrafish embryos; [2]) was 15% and the Severe % (zebrafish embryos; 10 μM, interval exposure 2-4 hpf, scored at 48 hpf) was 0%. The “Moderate dorsalization, number of embryos” value (zebrafish embryos; 10 μM, interval exposure 4-8 hpf, scored at 48 hpf) was 8, the “Moderate-Severe, number of embryos” value (zebrafish embryos; DM 2 μM from 3 hpf, scored at 48 hpf) was 0 and the dorsalization phenotype (zebrafish embryos; ≧5 μM at ≦8 hpf) was “phenocopied with high penetrance the spectrum of dorsalization defects”. For the same compound, the “effect on caALK7-mediated PAI-1 promoter activity (CAGA-Luc)” value (caALK7) was “did not inhibit; also recorded: not decreased”, the “Id1 mRNA, alone or in combination with IL-6” value ([1]; 4 μM, IL-6 100 ng/ml, 6 hours) was “blocked; also recorded: below basal levels” and the “hepcidin mRNA, alone or in combination with IL-6” value ([1]; 4 μM, IL-6 100 ng/ml, 6 hours) was “blocked; also recorded: below basal levels”. The “lowering of baseline hepcidin expression” value ([1]; DM 4 μM alone) was 27% and the “effect on BMP4-induced hepcidin mRNA expression” value ([1]; DM 4 μM pretreatment, BMP4 20 ng/ml) was “completely abrogated”.
